# Results from article PMC13242511, “Disrupting Notch signalling by a small molecule inhibiting dihydroorotate dehydrogenase activity” (Scientific Reports, 2026).
# “And” between values parts separate entries of the source, which are not always exact repeats. Identical values can stand only once. Like-named read-outs stand apart in the source and are kept apart here.
# Experiments:
# γ-secretase complex = γ-secretase complex (Homo sapiens, UniProt P49768); test: APP-C99 counter assay (GSI reporter assay); assay type: cell-based; set-up: AUC APP: scale not given here; settings: for Hill-slope: bottom constrained to Emax of positive control LY-411575; for AUC APP: area under the 14-point dose-response curve, replicates averaged
# Method: To this end, we used a previously established reporter gene-based GSI assay (APP-C99) (Fig. 3A), which measures γ-secretase activity through cleavage of amyloid precursor protein (APP), another protein processed by the γ-secretase complex[24]
# Plasmids for APP and luciferase are described in[24] and the renilla plasmid described above generated for this project was used to normalize firefly values. 24 h post transfection cells were seeded on compound plates and cells were cultivated for 24 h before luciferase signals were read, as described.
# Two-fold concentrations of compounds were diluted in 10 µl cell culture medium and brought to one-fold by seeding 10 µl containing 4000 cells of the respective cell type on each well of a 384-well plate, as described above. Analogous to the previous assays, all plates contained one DMSO and DAPT control column with the Notch reporter cell line (#A1-11) and a DMSO only and Notch inhibitor control plate was read before the measuring the screening plates. In addition, DAPT and DMSO were spotted in a dose response fashion, and a minimum of four replicates were read. Dose-responses of compounds were recorded in triplicates for each concentration reading out the dual luciferase reporters, as described above. Dose response assays were read together in one session. To measure compound effects, the different assays dose–response curves were fitted using the log(inhibitor) vs. response – Variable slope (model: Y = Bottom + (Top–Bottom)/(1 + 10^((LogIC50-X)*HillSlope)) equation.
# A DMSO plate was read before measuring luciferase activity of compound spotted plates. APP firefly luciferase reporter assays were read with a signal integration time of 0.1 s, instead of 0.5 s used for the Notch reporter to reduce signal overlap between wells. […] The area-under-the-curve (AUC) was calculated on dose–response curves using Graphpad Prism.
# Notch signalling = test: Notch reporter assay (12xCSL firefly luciferase / renilla luciferase, HEK293T Notch1ΔE reporter cell line clone #A1-11); assay type: cell-based; set-up: AUC Notch: scale not given here; settings: for Bottom (Emax): Emax indicated independent from assay constraints, in % (unit assumed); for AUC Notch: area under the 14-point dose-response curve
# From the text: To identify novel Notch inhibitors in an unbiased manner, we generated a novel Notch reporter construct, which records the level of Notch signalling immediately downstream of receptor activation rather than further downstream in the signalling cascade, for example at the level of Hes and Hey proteins (Fig. 1B). […] The reporter construct carries piggy-bac sequences at both ends of the promoter-reporter cassette as well as cSH4 insulator elements to reduce transcriptional noise[21] and was transfected into HEK293T cells. To achieve a robust level of Notch receptor activity in the HEK293T reporter cell line and to confine the search for inhibitors to compounds affecting the receptor function and eliminating the need for ligand activation, a truncated ligand-independent version of the Notch1 receptor, mimicking an S2-cleaved Notch1 receptor (Notch1ΔE) and spontaneously activated by S3-cleavage[22] (Fig. 1C) was introduced into the cell line carrying the reporter construct (Fig. 1D). In addition, an HSV-TK-renilla luciferase plasmid was introduced into the cell line as an internal control for normalisation of the reporter expression (Fig. 1D).
# A de novo Notch reporter construct, composed of six dimeric CSL binding sites linked to a basic b-globin promoter and followed by a firefly luciferase gene and a PEST degradation domain was synthesised (GeneArt). The construct was stably introduced into HEK293T cells, and zeocin (0.1 mg/ml) or Puromycin (0.05 mg/ml (ThermoFisher, cat #R25001, #A1113803) were used as selection markers. A clonal cell line (clone #A1) with robust renilla expression and enhanced firefly luciferase expression upon transient transfection of Notch1 ICD or Notch1ΔE constructs was selected, and a UB6 promoter-Notch1DE construct was stably introduced into this cell line using Blasticidin (0.1 mg/ml; ThermoFisher, cat #A1113903) as a selection marker. Stable cell lines were generated by serial dilution and only clonal colonies were selected for further evaluation. To measure luciferase reporter activity, cells were washed in cold PBS, detached, and collected in pre-warmed cell culture medium and centrifugated for five min at 200xg. The cell pellet was resuspended in medium, cells were counted, and 4,000 cells were seeded in each well of a white 384 well plate (Corning #3670) in 20 µl medium containing either DMSO or the GSI DAPT (N-[N-(3,5-Difluorophenacetyl)-L-alanyl]-S-phenylglycine t-butyl ester, Sigma-Aldrich, cat #565784-M) and incubated for 24 h. The efficacy of the reporter gene system was determined by monitoring the level of luciferase activation in the absence or presence of different amounts of DAPT in several cell clones. Luciferase activity was assessed using the dual-GLO luciferase detection kit from Promega (cat # E2920), following the manufacturer’s instructions. A minimum of two technical replicates were measured per clone using a SpectraMaxi3 plate reader (Molecular Devices). Reporter activity of different clones and in response to DAPT was assessed by normalising firefly (Notch activity) to renilla luciferase signals. Normalised signals of individual clones cultivated in DMSO were then compared to corresponding signals generated with DAPT-treated cells. The cell clone with the strongest signal to control ratio (DMSO to DAPT) was then selected for further exploration (clone #A1-11).
# 37,966 compounds were spotted by the compound center at SciLifeLab (https://www.scilifelab.se/) on a total of 120 plates (Greiner #781080) at a fixed concentration of 10 µM and the screening process spanned five consecutive sessions. The layout of each plate contained one column for DMSO and one for DAPT controls to determine the quality and reliability of the data. DAPT controls were spotted at 10 µM and DMSO was spotted in an equimolar volume. In addition, plates spotted with only DMSO were utilized to investigate the impact of plate effects before and after each session. […]
# [1] = Homo sapiens, HEK-293T, 14p Notch assay DR, bottom constrained to Emax of positive control DAPT, read-out: approximated IC50
# [2] = Homo sapiens, HEK-293T, 14p Notch assay DR, log10 value, bottom constrained to Emax of positive control DAPT, read-out: approximated LogIC50 (converted)
# [3] = 9p dose response, AUCs averaged when replicates available
# [4] = 9p dose response, log10 of averaged IC50
# [5] = 14p dose response, AUCs averaged when replicates available
# [6] = overview in comparison to compound C, Supplemental Fig. 9
compound,measurement,setting,value
COc1ccc(C(=O)N2Cc3nc[nH]c3C[C@H]2c2nc(-c3ccc(OC)cc3)no2)cc1 [CBK288966],Hill-slope,γ-secretase complex; 14p APP assay DR,-6.4
same,remaining activity at 10 µM,"γ-secretase complex; 24 h, 10µM, APP-C99 counter assay, read-out: 3p-DR in % of DMSO counter",120%
same,remaining activity at 25 µM,"γ-secretase complex; 24 h, 25µM, APP-C99 counter assay, read-out: 3p-DR in % of DMSO counter",78.7%
same,remaining activity at […],"γ-secretase complex; 24 h, 1,25µM, APP-C99 counter assay, read-out: 3p-DR in % of DMSO counter",112%
same,AUC APP,γ-secretase complex,443.8
same,Bottom (Emax),Notch signalling; 14p Notch assay DR,57.5
same,IC50,Notch signalling; [1],5400 nM
same,IC50,Notch signalling; [2],5010 nM
same,activity at 10 µM,"Notch signalling; Homo sapiens, HEK-293T, 10 µM, primary screen, 24 h, unit from Fig. 2 legend, read-out: Primary screen at 10 µM (Notch reporter signal)",57.1%
same,activity at 10 µM,"Notch signalling; Homo sapiens, HEK-293T, 10 µM, three-dose confirmation screen, unit from Fig. 2 legend, read-out: Hit confirmation at 10 µM (Notch reporter signal)",58.5%
same,activity at 10 µM,"Notch signalling; Homo sapiens, HEK-293T, 10µM, 3-point DR confirmation screen, Notch reporter assay, read-out: inhibitor ratio in % of DMSO in 3 point DR",58.5%
same,activity at 10 µM,"Notch signalling; Homo sapiens, HEK-293T, 10 µM, sheet conf vs counter 10 µM, same values as 3-point DR confirmation screen, read-out: Confirmation screen",58.5%
same,activity at 25 µM,"Notch signalling; Homo sapiens, HEK-293T, 25µM, 3-point DR confirmation screen, Notch reporter assay, read-out: inhibitor ratio in % of DMSO in 3 point DR",61.1%
same,activity at 25 µM,"Notch signalling; Homo sapiens, HEK-293T, 25 µM, Notch reporter 3-point dose-confirmation assay, sheet ""conf vs counter 25 µM"", read-out: Confirmation screen",61.1%
same,activity,"Notch signalling; Homo sapiens, HEK-293T, 1,25µM, 3-point DR confirmation screen, Notch reporter assay, read-out: inhibitor ratio in % of DMSO in 3 point DR",83.6%
same,AUC Notch,Notch signalling; replicates averaged,299.0
c1ccc(-c2ccccc2CN2CCC3(CC2)OCCc2c3[nH]c3ccccc23)cc1 [CBK040201],Hill-slope,γ-secretase complex; 14p APP assay DR,0.0232
same,AUC APP,γ-secretase complex,739.3
same,Bottom (Emax),Notch signalling; 14p Notch assay DR,50.0
same,IC50,Notch signalling; [1],2000 nM
same,IC50,Notch signalling; [2],2000 nM
same,AUC Notch,Notch signalling; replicates averaged,592.0
CC(=O)Nc1cccc(-c2cn3ccnc3c(Nc3cccc(OC(F)(F)C(F)F)c3)n2)c1 [CBK037499],Hill-slope,γ-secretase complex; 14p APP assay DR,0.0127
same,AUC APP,γ-secretase complex,508.5
same,Bottom (Emax),Notch signalling; 14p Notch assay DR,77.1
same,IC50,Notch signalling; [1],> 40000 nM
same,IC50,Notch signalling; [2],> 40000 nM
same,AUC Notch,Notch signalling; replicates averaged,348.0
"NC(=O)[C@@H](CC1CC1)[C@@H](CCC(F)(F)F)C(=O)N[C@H]1N=C(c2ccccc2)c2cccc(F)c2NC1=O [BMS-983970, reference compound]",Hill-Slope 9p APP counter assay averaged,γ-secretase complex; 9p dose response,-1.6
same,AUC 9p APP-counter assay,γ-secretase complex; [3],2.41E+02
same,IC50,"γ-secretase complex; 9p dose response, averaged, read-out: 9p APP counter assay averaged IC50s",22 nM
same,9p APP counter assay averaged IC50s (log),γ-secretase complex; [4],-7.7
same,IC50,"γ-secretase complex; 9p dose response, read-out: approximated IC50s 9p APP counter assay",22 nM
same,IC50,"γ-secretase complex; 14-point, unit inferred, some fits outside of tested concentration range, read-out: approximated IC50s 14p APP-counter assay",400 nM
same,Bottom (Emax),"γ-secretase complex; 14p APP assay DR, Emax indicated independent from assay constraints",45.9 and 48.3
same,IC50,"γ-secretase complex; 14p APP assay DR, Notch inhibitor controls, no bottom constraint named, read-out: approximated IC50",44 nM and 70 nM
same,AUC. 14p APP-counter assay,γ-secretase complex; [5],4.87E+02
same,IC50,"γ-secretase complex; 14p dose response, averaged over replicates, read-out: 14p APP counter assay averaged IC50s",57 nM
same,AUC APP,γ-secretase complex,486.6
same,APP assay,γ-secretase complex; [6],higher potency
same,IC50,"Notch signalling; 9p dose response, single replicates, read-out: approximated IC50s 9p Notch reporter assay",1.2 nM
same,AUC 9p Notch reporter assay,Notch signalling; [3],2.16E+02
same,IC50,"Notch signalling; 9p dose response, averaged over replicates, read-out: 9p Notch reporter assay averaged IC50s",1.2 nM
same,9p Notch reporter assay averaged IC50s (log),Notch signalling; [4],-8.9
same,IC50,"Notch signalling; 14-point, unit inferred, replicates averaged, read-out: approxiated IC50s 14p Notch reporter assay",3.6 nM
same,Bottom (Emax),Notch signalling; 14p Notch assay DR,49.6 and 50.5 and 62.5
same,IC50,"Notch signalling; 14p Notch assay DR, Notch inhibitor controls, no bottom constraint named, read-out: approximated IC50",3.6 nM and ~2.3 nM
same,IC50,"Notch signalling; 14p Notch assay DR, averaged when replicate measurements were available, read-out: averaged IC50s",3.6 nM
same,approximated LogIC50 [M],"Notch signalling; 14p Notch assay DR, log10 value, Notch inhibitor controls, no bottom constraint named",-8.5 M
same,IC50,"Notch signalling; 14p dose response, single replicates, read-out: approximated IC50s 14p Notch reporter assay",3.6 nM and 3.5 nM
same,AUC 14p Notch reporter assay,Notch signalling; [5],4.10E+02
same,IC50,"Notch signalling; 14p dose response, averaged over replicates, read-out: 14p Notch reporter assay averaged IC50s",3.6 nM
same,14p Notch reporter assay averaged IC50s (log),"Notch signalling; 14p dose response, log10 of averaged IC50",-8.4
same,AUC Notch,Notch signalling; replicates averaged,410.0
same,Notch assay,Notch signalling; [6],higher potency
